In test [1] the test system is SKBr3 (estrogen receptor negative, Her2 over-expressing breast cancer cells). The experiment in a line: Anti-proliferation assay (MTS/PMS, 72 h), SKBr3. Type of test: cell-based. As to the method:
(§1) Cells were maintained in a 1:1 mixture of Advanced DMEM/F12 (Gibco) supplemented with non-essential amino acids, L-glutamine (2 mM), streptomycin (500 μg/mL), penicillin (100 units/mL), and 10% FBS. Cells were grown to confluence in a humidified atmosphere (37° C., 5% CO2), seeded (2000/well, 100 μL) in 96-well plates, and allowed to attach overnight. Compound at varying concentrations in DMSO (1% DMSO final concentration) was added, and cells were returned to the incubator for 72 h. At 72 h, the number of viable cells was determined using an MTS/PMS cell proliferation kit (Promega) per the manufacturer's instructions. Cells incubated in 1% DMSO were used at 100% proliferation, and values were adjusted accordingly. IC50 values were calculated from separate experiments performed in triplicate using GraphPad Prism.
(§2) The anti-proliferative activity of these compounds is evaluated against two breast cancer cell lines, SKBr3 (estrogen receptor negative, Her2 over-expressing breast cancer cells) and MCF-7 (estrogen receptor positive breast cancer cells).

Test [2] concerns MCF-7 (estrogen receptor positive breast cancer cells). The experiment in a line: Anti-proliferation assay (MTS/PMS, 72 h), MCF-7. Type of test: cell-based. As to the method: as §1, §2
Setting [3] is: Homo sapiens, SK-BR-3, Table 1, modified benzamide coumarin derivatives, read-out: SKBr3.
[4] abbreviates: Homo sapiens, MCF7, Table 1, modified benzamide coumarin derivatives, read-out: MCF-7.
Setting [5] is: Table 3, cycloamine analogues, read-out: SKBr3.
The mark [6] stands for this setting: Table 3, cycloamine analogues, read-out: MCF-7.
[7] abbreviates: Homo sapiens, SK-BR-3, Table 5, alkylether derivatives with cyclic N-substitutions, read-out: SKBr3.
[8] abbreviates: Homo sapiens, MCF7, Table 5, alkylether derivatives with cyclic N-substitutions, read-out: MCF-7.
[9] abbreviates: Table 10, modified initial novobiocin analogs, read-out: SkBr3, IC50.
Where [10] appears, read: Homo sapiens, SK-BR-3, Table 4, alkylamino analogues, read-out: SKBr3.
Setting [11] is: Homo sapiens, MCF7, Table 4, alkylamino analogues, read-out: MCF-7.
Setting [12] is: Homo sapiens, SK-BR-3, Table 8, biphenyl ureas, Breast Cancer, read-out: IC50 SKBr3.
Setting [13] is: Homo sapiens, MCF7, Table 8, biphenyl ureas, Breast Cancer, read-out: IC50 MCF-3.
Where [14] appears, read: Homo sapiens, SK-BR-3, Table 2, modified benzamide and biphenylamide derivatives (in μM), read-out: SKBr3.
[15] abbreviates: Homo sapiens, MCF7, Table 2, modified benzamide and biphenylamide derivatives (in μM), read-out: MCF-7.
Where [16] appears, read: Table 9, non-aryl ureas, Breast Cancer, read-out: IC50 SKBr3.
The mark [17] stands for this setting: Table 9, non-aryl ureas, Breast Cancer, read-out: IC50 MCF-3.

SMILES strings stand for the structures. Like-named read-outs stand apart in the source and are kept apart here.

Consider `C#CCOc1ccc(C(=O)Nc2cc3ccc(OC4CCN(C)CC4)c(C)c3oc2=O)cc1CC=C(C)C` [Compound 18, N-(8-methyl-7-(1-methylpiperidin-4-yloxy)-2-oxo-2H-chromen-3-yl)-3-(3-methylbut-2-enyl)-4-(prop-2-ynyloxy)benzamide], for which the IC50 in test [1] (setting [3]) is 1.4 ± 0.11 µM; in test [2] (setting [4]), 1.12 ± 0.16 µM.

Consider `COc1ccc(C(=O)Nc2cc3ccc(OC4CCN(C)CC4)c(C)c3oc2=O)cc1CC=C(C)C` [Compound 16, 4-methoxy-N-(8-methyl-7-(1-methylpiperidin-4-yloxy)-2-oxo-2H-chromen-3-yl)-3-(3-methylbut-2-enyl)benzamide], for which the IC50 was 1.41 ± 0.2 µM in test [1] (setting [3]) and 1.58 ± 0.09 µM in test [2] (setting [4]).

As for `CC(=O)Oc1ccc(C(=O)Nc2cc3ccc(OCCC4CCCCN4)c(C)c3oc2=O)cc1CC=C(C)C` (stereo not shown), the IC50 turned out to be 0.64 ± 0.06 µM in test [1] (setting [5]) and 0.71 ± 0.03 µM in test [2] (setting [6]).

In the case of `CC(C)=CCc1cc(C(=O)Nc2cc3ccc(OCCC4CCCCN4)c(C)c3oc2=O)ccc1O` (stereo not shown), the values for the IC50 in test [1] (setting [5]) and in test [2] (setting [6]) were 0.64 ± 0.06 µM and 0.71 ± 0.03 µM, respectively.

Consider `CC(C)=CCc1cc(C(=O)Nc2cc3ccc(OCCCNCc4ccccc4)c(C)c3oc2=O)ccc1O` [Compound 70e, N-(7-(3-(benzylamino)propoxy)-8-methyl-2-oxo-2H-chromen-3-yl)-4-hydroxy-3-(3-methylbut-2-en-1-yl)benzamide], for which the IC50 in test [1] (setting [7]) is 0.47 ± 0.16 µM; in test [2] (setting [8]), 0.91 ± 0.01 µM. The matching figures for `CC(C)=CCc1cc(C(=O)Nc2cc3ccc(OCCCNC4CCCCC4)c(C)c3oc2=O)ccc1O` [Compound 70a, N-(7-(3-(cyclohexylamino)propoxy)-8-methyl-2-oxo-2H-chromen-3-yl)-4-hydroxy-3-(3-methylbut-2-en-1-yl)benzamide]: 0.66 ± 0.12 µM and 1.07 ± 0.35 µM. Consider `CC(C)=CCc1cc(C(=O)Nc2cc3ccc(OCCCNC4C[C@H]5CC[C@@H]4C5)c(C)c3oc2=O)ccc1O` (stereo partly drawn) [Compound 70i, N-(7-(3-((1R,4S)-bicyclo[2.2.1]heptan-2-ylamino)propoxy)-8-methyl-2-oxo-2H-chromen-3-yl)-4-hydroxy-3-(3-methylbut-2-en-1-yl)benzamide], for which the values for the IC50 in test [1] (setting [7]) and in test [2] (setting [8]) were 0.77 ± 0.13 µM and 1.03 ± 0.12 µM, respectively. Turning to `Cc1ccc(NC(=O)Nc2cc3ccc(OC4CCN(C)CC4)c(C)c3oc2=O)cc1C` [Compound 10], the IC50 in test [1] (setting [9]) is 0.31 ± 0.09 µM. For the compound `CC(C)=CCc1cc(C(=O)Nc2cc3ccc(OCCCN(C)[C@H](C)c4ccccc4)c(C)c3oc2=O)ccc1O` [Compound 70f, (R)-4-hydroxy-N-(8-methyl-7-(3-(methyl(1-phenylethyl)amino)propoxy)-2-oxo-2H-chromen-3-yl)-3-(3-methylbut-2-en-1-yl)benzamide], the IC50 in test [1] (setting [7]) was 1 ± 0.31 µM; in test [2] (setting [8]), 1.45 ± 0.2 µM.

`CC(=O)Oc1ccc(C(=O)Nc2cc3ccc(OCC4CCN(C)C4)c(C)c3oc2=O)cc1CC=C(C)C` (stereo not shown): the IC50 in test [1] (setting [5]) was 0.88 ± 0.09 µM; in test [2] (setting [6]) it was 1.88 ± 0.45 µM. Consider `CCN(C)CCCOc1ccc2cc(NC(=O)c3ccc(O)c(CC=C(C)C)c3)c(=O)oc2c1C` [Compound 68b, N-(7-(3-(ethyl(methyl)amino)propoxy)-8-methyl-2-oxo-2H-chromen-3-yl)-4-hydroxy-3-(3-methylbut-2-en-1-yl)benzamide], for which the results for the IC50 in test [1] (setting [10]) and in test [2] (setting [11]) were 0.73 ± 0.06 µM and 2.19 ± 0.5 µM, respectively. On to `COc1cccc(-c2cc(NC(=O)Nc3cc4ccc(OC5CCN(C)CC5)c(C)c4oc3=O)ccc2C)c1` [CH3, OMe, 1-(3′-methoxy-6-methyl-[1,1′-biphenyl]-3-yl)-3-(8-methyl-7-((1-methylpiperidin-4-yl)oxy)-2-oxo-2H-chromen-3-yl)urea], for which the values for the IC50 in test [1] (setting [12]) and in test [2] (setting [13]) were 0.25 µM and 0.21 µM, respectively. On to `CC(=O)Oc1ccc(C(=O)Nc2cc3ccc(OCC4CCCN(C)C4)c(C)c3oc2=O)cc1CC=C(C)C` (stereo not shown), for which the IC50 was determined as 0.74 ± 0.01 µM in test [1] (setting [5]) and 1.65 ± 0.11 µM in test [2] (setting [6]). For `CC(C)=CCc1cc(C(=O)Nc2cc3ccc(OC4CCN(C)CC4)c(C)c3oc2=O)ccc1OCCN(C)C` [Compound 23, 4-(2-(dimethylamino)ethoxy)-N-(8-methyl-7-(1-methylpiperidin-4-yloxy)-2-oxo-2H-chromen-3-yl)-3-(3-methylbut-2-enyl)benzamide], the IC50 in test [1] (setting [14]) turned out to be 0.33 µM; in test [2] (setting [15]), 0.72 ± 0.08 µM. As for `CC(C)=CCc1cc(C(=O)Nc2cc3ccc(OCCCN(C)C(C)(C)C)c(C)c3oc2=O)ccc1O` [Compound 68k, N-(7-(3-(tert-butyl(methyl)amino)propoxy)-8-methyl-2-oxo-2H-chromen-3-yl)-4-hydroxy-3-(3-methylbut-2-en-1-yl)benzamide], the IC50 in test [1] (setting [10]) was determined as 0.88 ± 0.1 µM; in test [2] (setting [11]), 1.14 ± 0.11 µM. For `Cc1ccc(NC(=O)Nc2cc3ccc(OC4CCN(C)CC4)c(C)c3oc2=O)cc1-c1cccc(Cl)c1` [CH3, Cl, 1-(3′-chloro-6-methyl-[1,1′-biphenyl]-3-yl)-3-(8-methyl-7-((1-methylpiperidin-4-yl)oxy)-2-oxo-2H-chromen-3-yl)urea], the IC50 in test [1] (setting [12]) was 0.44 µM; in test [2] (setting [13]), 0.5 µM. Take `CC(C)=CCc1cc(C(=O)Nc2cc3ccc(OC4CCN(C)CC4)c(C)c3oc2=O)ccc1OC1CCN(C)CC1` [Compound 25, N-(8-methyl-7-(1-methylpiperidin-4-yloxy)-2-oxo-2H-chromen-3-yl)-3-(3-methylbut-2-enyl)-4-(1-methylpiperidin-4-yloxy)benzamide]: the IC50 is 0.21 µM in test [1] (setting [14]) and 0.47 ± 0.081 µM in test [2] (setting [15]).

As for `CC(C)=CCc1cc(C(=O)Nc2cc3ccc(OC4CCN(C)CC4)c(C)c3oc2=O)ccc1O` [Compound 2], the IC50 in test [2] (setting [4]) is 1.09 ± 0.1 µM; in test [2] (setting [15]), 1.09 ± 0.1 µM; in test [2] (Homo sapiens, MCF7, amide versus urea linkage, read-out: IC50 for MCF-3) it was 1.09 µM. In the case of `CCN(CC)CCCOc1ccc2cc(NC(=O)c3ccc(O)c(CC=C(C)C)c3)c(=O)oc2c1C` [Compound 68c], the IC50 in test [1] (Table 4, alkylamino analogues, read-out: SKBr3) amounted to 4.9 ± 0.42 µM; in test [2] (Table 4, alkylamino analogues, read-out: MCF-7) it was 6.39 ± 0.04 µM. On to `COc1cccc(-c2cccc(NC(=O)Nc3cc4ccc(OC5CCN(C)CC5)c(C)c4oc3=O)c2)c1` [H, OMe, 1-(3′-methoxy-[1,1′-biphenyl]-3-yl)-3-(8-methyl-7-((1-methylpiperidin-4-yl)oxy)-2-oxo-2H-chromen-3-yl)urea], for which the IC50 in test [1] (setting [12]) was found to be 0.44 µM; in test [2] (setting [13]), 0.37 µM.

`CC(C)=CCc1cc(C(=O)Nc2cc3ccc(OCCCN4CCOCC4)c(C)c3oc2=O)ccc1O` [drawing 145]: the IC50 in test [1] (setting [5]) and in test [2] (setting [6]) was above 50 µM each time. In the case of `CC(C)=CCc1cc(C(=O)Nc2cc3ccc(OCCCN4CCCCC4)c(C)c3oc2=O)ccc1O` [drawing 146], the IC50 in test [1] (setting [5]) and in test [2] (setting [6]) was above 50 µM throughout.

Turning to `CC(C)=CCc1cc(C(=O)Nc2cc3ccc(OCCCN(C)C4CCCCC4)c(C)c3oc2=O)ccc1O` [Compound 70b], the IC50 in test [1] (Table 5, alkylether derivatives with cyclic N-substitutions, read-out: SKBr3) was 0.97 ± 0.03 µM; in test [2] (Table 5, alkylether derivatives with cyclic N-substitutions, read-out: MCF-7) it was 1.08 ± 0.07 µM. On to `CC(C)=CCc1cc(C(=O)Nc2cc3ccc(OCCCN4CCNCC4)c(C)c3oc2=O)ccc1O`, for which the IC50 in test [1] (setting [5]) came out at 0.82 ± 0.02 µM; in test [2] (setting [6]), 0.93 ± 0.21 µM. As for `Cc1c(OC2CCN(C)CC2)ccc2cc(NC(=O)Nc3ccc(Cl)cc3)c(=O)oc12` [Compound 8], in test [1] (setting [9]), the IC50 is 0.17 ± 0.01 µM.

For `CC(C)=CCc1cc(C(=O)Nc2cc3ccc(OCCCNC(C)(C)c4ccccc4)c(C)c3oc2=O)ccc1O` [Compound 70g, 4-hydroxy-N-(8-methyl-2-oxo-7-(3-((2-phenylpropan-2-yl)amino)propoxy)-2H-chromen-3-yl)-3-(3-methylbut-2-en-1-yl)benzamide], the IC50 stood at 0.96 ± 0.01 µM in test [1] (setting [7]) and 1.07 ± 0.01 µM in test [2] (setting [8]). `Cc1c(OC2CCN(C)CC2)ccc2cc(NC(=O)NCc3ccc(Oc4ccccc4)cc3)c(=O)oc12`: the IC50 in test [1] (setting [16]) was determined as 0.23 ± 0.08 µM; in test [2] (setting [17]), 0.38 ± 0.04 µM. As for `Cc1c(OC2CCN(C)CC2)ccc2cc(NC(=O)NCc3ccc(Cl)cc3)c(=O)oc12`, the IC50 in test [1] (setting [16]) was determined as 1.04 ± 0.07 µM; in test [2] (setting [17]) it was 1.05 ± 0.07 µM. In the case of `CC(C)=CCc1cc(C(=O)Nc2cc3ccc(OCCCN(C)C(C)C)c(C)c3oc2=O)ccc1O` [Compound 68h, 4-hydroxy-N-(7-(3-(isopropyl(methyl)amino)propoxy)-8-methyl-2-oxo-2H-chromen-3-yl)-3-(3-methylbut-2-en-1-yl)benzamide], the IC50 in test [1] (setting [10]) came to 0.57 ± 0.13 µM; in test [2] (setting [11]), 1.05 ± 0.06 µM. For the compound `CC(=O)Oc1ccc(C(=O)Nc2cc3ccc(OCC4CCCNC4)c(C)c3oc2=O)cc1CC=C(C)C` (stereo not shown), the figures for the IC50 in test [1] (setting [5]) and in test [2] (setting [6]) were 0.62 ± 0.04 µM and 0.82 ± 0.07 µM, respectively.

In the case of `CC(C)=CCc1cc(C(=O)Nc2cc3ccc(OC4CCN(C)CC4)c(C)c3oc2=O)ccc1O` [drawing 134], in test [2] (setting [6]), the IC50 came out at 1.09 ± 0.1 µM. For `Cc1c(OCCC2CCCCN2)ccc2cc(NC(=O)Nc3ccc(Cl)cc3)c(=O)oc12` (stereo not shown) [Compound 11], in test [1] (setting [9]), the IC50 turned out to be 0.21 ± 0.06 µM.

The values above are taken from patent US10030006B2, “Coumarin based Hsp90 inhibitors with urea and ether substituents” (University of Kansas, priority 2013, dated 2018).
